Measured values reported in ChEMBL document CHEMBL1151155, “Effect of magnesium lithospermate B on urinary prostaglandins in rats with renal failure” (1990).
Active and inactive are the calls of the source. The rule behind the calls is not given here.

Tests used:
Rattus norvegicus [1] = experiment: Effect on urinary excretion of prostaglandin in adenine rich diet fed LWH:Wistar rat assessed as urine prostaglandin E2 level per 24 hrs at […], ip administered from day 7 to day 12 of adenine ingestion; assay type: functional
Rattus norvegicus [2] = experiment: Effect on urinary excretion of prostaglandin in adenine rich diet fed LWH:Wistar rat assessed as urine 6-keto-PGF1-alpha level per 24 hrs at […], ip administered from day 7 to day 12 of adenine ingestion; assay type: functional
Rattus norvegicus [3] = experiment: Effect on urinary excretion of prostaglandin in adenine rich diet fed LWH:Wistar rat assessed as urine TXB2 level per 24 hrs at […], ip administered from day 7 to day 12 of adenine ingestion; assay type: functional
Rattus norvegicus [4] = experiment: Decrease in urinary excretion of thromboxane B2 in adenine rich diet fed LWH:Wistar rat at […], ip administered from day 7 to day 12 of adenine ingestion; assay type: functional, Urine; parameters: scale not given: the % may be the effect or the level left
Rattus norvegicus [5] = experiment: Protection against renal failure in adenine rich diet fed LWH:Wistar rat up to […], ip administered once daily from day 7 to day 12 of adenine ingestion; assay type: functional, organism-based
Rattus norvegicus [6] = experiment: Increase in urinary excretion of prostaglandin E2 in adenine rich diet fed LWH:Wistar rat at […], ip administered from day 7 to day 12 of adenine ingestion; assay type: functional, organism-based; details: Urine

SMILES: O=C(/C=C/c1ccc(O)c2c1[C@H](C(=O)O[C@H](Cc1ccc(O)c(O)c1)C(=O)[O-])[C@@H](c1ccc(O)c(O)c1)O2)O[C@H](Cc1ccc(O)c(O)c1)C(=O)[O-].[Mg+2] [MAGNESIUM LITHOSPERMATE B]
- Activity (Rattus norvegicus [1]): 72.5 ng
- Activity (Rattus norvegicus [2]): 20.7 ng
- Activity (Rattus norvegicus [3]): 23.3 ng
- Activity (Rattus norvegicus [4]): 36%
- Activity (Rattus norvegicus [5]): Active
- Activity (Rattus norvegicus [6]): Active
